The values below come from patent publication US8377909B2, “Use of phytate as agent inhibiting dissolution of crystals of calcium salts for the prevention of osteoporosis” (Universitat de les Illes Balears, priority 2006, dated 2013).

Series [1] can be described thus: Dissolution of hydroxyapatite in the presence of phytate at pH 5. The following applies: 12 and 24 uM phytate present in pH 5 stage; over 24 hours; FIG. 2. Format: physicochemical. As for the experimental part:
FIG. 2 is a graph showing the quantity of calcium dissolved on treating hydroxyapatite for a period of 24 hours in the presence of various concentrations of phytate at pH5.
(§1) A homogenous suspension of crystalline calcium phosphate in the form of hydroxyapatite in TRIS buffer at pH 7.4 was prepared. This suspension was stirred for 8 hours. Then the crystals obtained were filtered and dried to constant weight. Then these crystals were resuspended at pH 5.0 (in acetate buffer) and the kinetics of dissolution of the salt was determined over 24 hours, continuously stirring the system. The kinetics were followed by determining the quantity of dissolved calcium and phosphorus by atomic emission spectroscopy (using inductively coupled plasma).
This experiment was repeated using concentrations of 12 and 24 uM of phytate in the pH 5 stage with the aim of studying the inhibitory effect of dissolution by phytate present in the solution.

Series [2] is described as follows: Effect of phytate consumption on bone mass, axial densitometry. Format: in vivo. The conditions noted are these: overall conclusion of the densitometry study. Here is the method: A study was carried out evaluating the effect of phytate consumption on the level of bone mass measured by axial densitometry and peripheral heel densitometry. In total, 433 axial densitometer measurements and 1473 peripheral heel densitometer measurements were made. The consumption of phytate by all subjects was evaluated by using a dietetic questionnaire. Subjects were classified into 4 groups (group 1, group 2, group 3 and group 4) according to increasing levels of phytate consumption.

The nature of series [3]: Dissolution of hydroxyapatite previously treated with phytate at pH 7.4. Format: physicochemical. The conditions noted are these: 1, 6 and 12 uM phytate fixed at pH 7.4 stage; dissolution at pH 5.0 acetate buffer over 24 hours; FIG. 1. As for the experimental part: FIG. 1 is a graph showing the quantity of calcium dissolved on treating hydroxyapatite, which has been previously treated with various concentrations of phytate at pH 7.4, for a period of 24 hours.
as §1
This experiment was repeated using concentrations of 1, 6 and 12 uM of phytate during the stage at pH 7.4 with the aim of fixing this compound on the hydroxyapatite structure.

The nature of series [4]: Adsorption of phytate on hydroxyapatite crystals. The format is physicochemical. The conditions noted are these: TRIS buffer pH 7.4, stirred 8 hours. As for the experimental part: Three homogenous suspensions of crystallised calcium phosphate in the form of hydroxyapatite in TRIS buffer at pH 7.4 were prepared. These suspensions were stirred for 8 hours in the presence of 1, 3 and 12 uM of phytate, respectively. Later, the suspensions were filtered and the amount of phytate adsorbed on the hydroxyapatite crystals was determined by difference between the initial and final phytate in the solution at pH 7.4.

With `O=P(O)(O)O[C@H]1[C@H](OP(=O)(O)O)[C@@H](OP(=O)(O)O)[C@H](OP(=O)(O)O)[C@@H](OP(=O)(O)O)[C@H]1OP(=O)(O)O` [phytate, myo-inositol hexaphosphate], the “inhibition of dissolution of hydroxyapatite (dissolved calcium)” value in series [1] and in series [3] was “capable of inhibiting the dissolution of the salt” each time. The “effect of consumption of a diet rich in phytate on bone mass” value in series [2] is “higher bone mass”. Besides, the “phytate present in the solution remained fixed to the calcium phosphate structure (hydroxyapatite)” value in series [4] (1 uM phytate) is 62%; in series [4] (3 uM phytate) it was 66%; in series [4] (12 uM phytate), 56%.
